From patent publication US8314082B2, “Stilbene derivatives for ADP-ribosyl cyclase inhibitors” (Industrial Cooperation Foundation Chonbuk National …, priority 2006, dated 2012)

Experiments:
[1] = tested on: Ang II induced cADPR production in rat cardiomyocytes; assay: Ang II-induced [cADPR]i in cardiomyocytes; format: cell-based; conditions: pretreatment
Experimental: [cADPR]i was measured using a cyclic enzymatic assay as described previously [Graeff et al., Biochem. J. (2002)361:379-84]. Aplysia californica ADPR-cyclase was purified from […] according to the method described [Lee et al., Cell Regul. (1991)2:203-9]. Briefly, MMCs were treated with 0.3 ml of 0.6 M perchloric acid under sonication after Ang II treatment. Precipitates were removed by centrifugation at 20,000×g for 10 min. […] After centrifugation for 10 min at 1500×g, the aqueous layer was collected and neutralized with 20 mM sodium phosphate (pH 8). To remove all contaminating nucleotides, the samples were incubated with the following hydrolytic enzymes overnight at 37° C.: 0.44 unit/ml nucleotide pyrophosphatase, 12.5 units/ml alkaline phosphatase, 0.0625 unit/ml NADase, and 2.5 mM MgCl2 in 20 mM sodium phosphate buffer (pH 8.0). Enzymes were removed by filtration using Centricon-3 filters. […] An increase in the resorufin fluorescence was measured at 544 nm excitation and 590 nm emission using a fluorescence plate reader (Molecular Devices Corp., Spectra-Max GEMINI). […] Measurement of [cADPR]i in cardiomyocytes were determined as described above examples 5. […]

[2] = tested on: 2 kidney 1 clip hypertensive rat model; assay: Systolic blood pressure in 2 kidney 1 clip hypertensive rat model; format: in vivo, Sprague-Dawley male rats; conditions: intraperitoneal 428 μg/200 g/d, from day 7 after surgery for 7 weeks, tail plethysmography
Experimental: Renovascular hypertension was produced by 2KlC Sprague-Dawley male rats (7-9 weeks old) weighing 200 to 220-g were anesthetized with ketamine (100 mg/kg, intra-peritoneally) and rumpen (5 mg/kg, intraperitoneally). The left kidney was exposed through the median abdominal incision, and the renal artery was separated from the renal vein with caution. Then, a silver clip with 0.15 mm slit was placed around the renal artery. The sham procedure was performed, including the entire surgery with the exception of arterial clipping. To examine the effect of 2,2′-DHAB in the 2KlC model, we administered it at days 7 after the surgery for 7 weeks. 2,2′-DHAB was injected intraperitoneally with 58% DMSO plus saline at a dose of 1.5 μl/g body weight (428 μg/200 g/d). Sham group and control 2KlC received DMSO plus saline treatment. The dose of injected DMSO had no side effect on blood pressure (BP) or any other parameters. Systolic blood pressure was measured by a method using tail plethysmography in conscious rats once a week, from the day prior to surgery until the day of sacrifice.

[3] = tested on: Ang II induced [Ca^2+]i increase in rat cardiomyocytes; assay: Ang II-mediated [Ca2+]i increase in cardiomyocytes; format: cell-based; conditions: pretreatment with 1 mM; sustained but not initial Ca2+
Experimental: Cardiomyocytes were isolated from Sprague-Dawley rats, weighing 210-240 g, by the method with a slight modification [Xie et al., Biochem. Biophys. Res. Commun. (2005)330:1290-8]. Rat hearts were rapidly excised, cannulated, and subjected to retrograde perfusion on a Langendorff apparatus at 37° C. with Ca^2+-free Krebs-Hanseleit (KH) buffer (10 mM HEPES, 118 mM NaCl, 4.7 mM KCl, 1.2 mM MgSO4, 1.2 mM KH2PO4, 25 mM NaHCO3, 10 mM pyruvate, 11 mM glucose, and […], pH 7.3) for 5 min and then with KH buffer containing 5 mM taurine, 0.075% collagenase Type II and 0.08 mg/l protease type XTV for 7-15 min and washed with KH buffer containing 0.2 mM Ca^2+. The left ventricle was removed, chopped into small pieces and further digested in a glass conical flask at 37° C. for 10 min with shaking. The undigested tissues were removed through a […] nylon sheet. […] Isolated myocytes were pelleted by centrifugation at 60×g for 2 min at room temperature and resuspended in a stabilizing buffer (pH, 7.4) containing 20 mM HEPES, 137 mM NaCl, 4.9 mM KCl, 1.2 mM MgSO4, 15 mM glucose, and 10 mM 2,3-butanedione monoxime (BDM). […] Changes in [Ca^2+]i in cardiomyocytes were determined at 488 nm excitation/530 nm emission by air-cooled argon laser system. The emitted fluorescence at 530 nm was collected using a photomultiplier. […]

STZ diabetic mice = assay: Diabetic nephropathy in STZ diabetes mouse model; format: in vivo; conditions: 45 μg/kg i.p. once a day for 6 weeks, mean SE, n = 6
Experimental: Male mice, weighing 20 25 g, were made diabetic by a single intravenous injection of STZ (65 mg/kg body weight) in 0.05 M citrate buffer (pH 4.8). At the same day, the control mice were injected with the citrate buffer. After 2 days, induction of diabetes was confirmed by tail blood glucose level measurement by using the LifeScan One Touch glucometer (Johnson & Johnson). The diabetic mice (>16 mM blood glucose) were randomly divided into two groups; 6 mice per group treated with vehicle (0.1% DMSO in saline, 100 μl) or DHAB (45 μg/kg body weight in 0.1% DMSO in saline, 100 μl) and resveratrol (45 μg/kg body weight in 0.1% DMSO in saline, 100 μl) administered by intraperitoneal injection once a day for 6 weeks. The control mice were 6 mice per group treated with the vehicle. On day 39, the mice were detained in individual metabolic cages for 24 h for urine collection. On day 42, the mice were anesthetized with diethyl ether, and blood samples were taken from the abdominal aorta. Bilateral kidneys were rapidly removed and weighed. Urine was gravimetrically collected, and urinary albumin concentrations were determined with an enzyme-linked immunosorbent assay using a murine microalbuminuria kit (Albuwell; Exocell, Philadelphia, Pa.). Urine and serum creatinine levels were measured using the QuantiChrom Creatinine Assay Kit (BioAssay Systems, Hayward, Calif.), following the manufacturer's protocol.

| SMILES | effect on Ang II-mediated [cADPR]i [1] | effect on elevation of systolic blood pressure [2] | effect on Ang II-evoked sustained Ca2+ increase [3] | Urine output (STZ diabetic mice; 24 h metabolic cage) [mL/day] | Body Weight (STZ diabetic mice) [g] | Food intake (STZ diabetic mice) [g] | Plasma glucose (STZ diabetic mice) [mg/dL] | Urinary Albumin (STZ diabetic mice) [µg/day] | Water intake (STZ diabetic mice) [mL] |
| --- | --- | --- | --- | --- | --- | --- | --- | --- | --- |
| Oc1ccccc1/N=N/c1ccccc1O [2,2′-DHAB, 2,2′-Dihydroxyazobenzene] | inhibited | prevented the elevation of blood pressure | significantly blocked | – | – | – | – | – | – |
| Oc1ccc(N=Nc2ccc(O)cc2)cc1 [4,4′-DHAB, 4,4′-Dihydroxyazobenzene] | – | – | – | 2.27 ± 1.80 | 22.1 ± 0.58 | 2.27 ± 0.61 | 342 ± 36.1 | 4.01 ± 3.61 | 2.00 ± 1.73 |
